Tests used:
[1] = test system: A431 cells [human epidermoid carcinoma, overexpressing HER1 (EGFR, ErbB1)]; test: In vitro tumor cell proliferation assay (Cell Titer-Glo luminescent cell viability), A431 cells; format: cell-based; conditions: A-431, 72 h, 72 hours of drug exposure, Cell Titer-Glo readout, read-out: IC50, anti-proliferative activity in A431 cells
Excerpt: (§1) The utility of the compounds of the present invention can be illustrated, for example, by their activity in vitro in the in vitro tumor cell proliferation assay described below. The link between activity in tumor cell proliferation assays in vitro and anti-tumor activity in the clinical setting has been very well established in the art.
(§2) The following assay is one of the methods by which compound activity relating to treatment of the disorders identified herein can be determined.
(§3) The tumor cell proliferation assay used to test the compounds of the present invention involves a readout called Cell Titer-Glow® Luminescent Cell Viability Assay developed by Promega® (Cunningham, B A “A Growing Issue: Cell Proliferation Assays, Modern kits ease quantification of cell growth” The Scientist 2001, 15(13), 26, and Crouch, S P et al., “The use of ATP bioluminescence as a measure of cell proliferation and cytotoxicity” Journal of Immunological Methods 1993, 160, 81-88), that measures inhibition of cell proliferation. Generation of a luminescent signal corresponds to the amount of ATP present, which is directly proportional to the number of metabolically active (proliferating) cells.
(§4) A431 cells [human epidermoid carcinoma, ATCC # […], overexpressing HER1 (EGFR, ErbB1)] and BT474 [human breast carcinoma, ATCC # CRL-1555, overexpressing HER2 (ErbB2)] were plated at a density of 2.5×10^3 cells/well in 96 well black-clear bottom tissue culture plates in RPMI media with 10% Fetal Bovine Serum and incubated at 37° C. Twenty-four hours later, test compounds are added at a final concentration range from as high 100 μm to as low 64 pM depend on the activities of the tested compounds in serial dilutions at a final DMSO concentration of 0.1%. Cells were incubated for 72 hours at 37° C. in complete growth media after addition of the test compound. After 72 hours of drug exposure, the plates were equilibrated to room temperature for approximately 30 min. Then, using a Promega Cell Titer Glo Luminescent® assay kit, lysis buffer containing 100 microliters of the enzyme luciferase and its substrate, luciferin mixture, was added to each well. The plates were mixed for 2 min on orbital shaker to ensure cell lysis and incubated for 10 min at room temperature to stabilize luminescence signal. The samples were read on VICTOR 2 using Luminescence protocol, and analyzed with Analyze5 software to generate IC50 values.

[2] = test system: BT474 [human breast carcinoma, overexpressing HER2 (ErbB2)]; test: In vitro tumor cell proliferation assay (Cell Titer-Glo luminescent cell viability), BT474 cells; format: cell-based; conditions: BT-474, 72 h, 72 hours of drug exposure, Cell Titer-Glo readout, read-out: IC50, anti-proliferative activity in BT474 cells
Excerpt: as §1, §2, §3, §4

Compound: O=C(O)/C=C/c1ccc2c(c1)sc1ncnc(Nc3ccc(OCc4cccc(F)c4)c(Cl)c3)c12 [Example 48, (2E)-3-[4-({3-chloro-4-[(3-fluorobenzyl)oxy]phenyl}amino)[1]benzothieno[2,3-d]pyrimidin-7-yl]acrylic acid]
- IC50 [1]: ≤ 50 µM
- IC50 [2]: ≤ 5 µM

Compound: CCN1CCN(C(=O)/C=C/c2ccc3c(c2)sc2ncnc(Nc4ccc(OCc5cccc(F)c5)c(Cl)c4)c23)CC1 [Example 49, N-{3-chloro-4-[(3-fluorobenzyl)oxy]phenyl}-7-[(1E)-3-(4-ethylpiperazin-1-yl)-3-oxoprop-1-en-1-yl][1]benzothieno[2,3-d]pyrimidin-4-amine]
- IC50 [1]: ≤ 5 µM
- IC50 [2]: ≤ 5 µM

Compound: COCCNC(=O)/C=C/c1ccc2c(c1)sc1ncnc(Nc3ccc(OCc4cccc(F)c4)c(Cl)c3)c12 [Example 50, (2E)-3-[4-({3-chloro-4-[(3-fluorobenzyl)oxy]phenyl}amino) [1]benzothieno[2,3-d]pyrimidin-7-yl]-N-(2-methoxyethyl)acrylamide]
- IC50 [1]: ≤ 50 µM
- IC50 [2]: ≤ 0.5 µM

Compound: CN1CCN(C(=O)/C=C/c2ccc3c(c2)sc2ncnc(Nc4ccc(OCc5cccc(F)c5)c(Cl)c4)c23)CC1 [Example 51, N-{3-chloro-4-[(3-fluorobenzyl)oxy]phenyl}-7-[(1E)-3-(4-methylpiperazin-1-yl)-3-oxoprop-1-en-1-yl][1]benzothieno [2,3-d]pyrimidin-4-amine]
- IC50 [1]: ≤ 5 µM
- IC50 [2]: ≤ 5 µM

Compound: CN(C)[C@H]1CCN(C(=O)/C=C/c2ccc3c(c2)sc2ncnc(Nc4ccc(OCc5cccc(F)c5)c(Cl)c4)c23)C1 [Example 52, N-{3-chloro-4-[(3-fluorobenzyl)oxy]phenyl}-7-{(1E)-3-[(3S)-3-(dimethylamino)pyrrolidin-1-yl]-3-oxoprop-1-en-1-yl}[1]benzothieno[2,3-d] pyrimidin-4-amine]
- IC50 [1]: ≤ 5 µM
- IC50 [2]: ≤ 5 µM

Compound: CN(C)CCNC(=O)/C=C/c1ccc2c(c1)sc1ncnc(Nc3ccc(OCc4cccc(F)c4)c(Cl)c3)c12 [Example 54, (2E)-3-[4-({3-chloro-4-[(3-fluorobenzyl)oxy]phenyl}amino) [1]benzothieno[2,3-d]pyrimidin-7-yl]-N-[2-(dimethylamino)ethyl]acrylamide]
- IC50 [1]: ≤ 50 µM
- IC50 [2]: ≤ 5 µM

Compound: CCN1CCN(C(=O)C(O)C(O)c2ccc3c(c2)sc2ncnc(Nc4ccc(OCc5cccc(F)c5)c(Cl)c4)c23)CC1 (centres unmarked) [Example 56, 1-[4-({3-chloro-4-[(3-fluorobenzyl)oxy]phenyl}amino)[1]benzothieno[2,3-d]pyrimidin-7-yl]-3-(4-ethylpiperazin-1-yl)-3-oxopropane-1,2-diol]
- IC50 [1]: ≤ 50 µM
- IC50 [2]: ≤ 5 µM

Compound: CCN1CCN(C(=O)[C@H](O)[C@@H](O)c2ccc3c(c2)sc2ncnc(Nc4ccc(OCc5cccc(F)c5)c(Cl)c4)c23)CC1 [Example 57, (1S,2R)-1-[4-({3-chloro-4-[(3-fluorobenzyl)oxy]phenyl}amino) [1]benzothieno[2,3-d]pyrimidin-7-yl]-3-(4-ethylpiperazin-1-yl)-3-oxopropane-1,2-diol]
- IC50 [1]: ≤ 50 µM
- IC50 [2]: ≤ 5 µM

Compound: CCN1CCN(C(=O)[C@@H](O)[C@H](O)c2ccc3c(c2)sc2ncnc(Nc4ccc(OCc5cccc(F)c5)c(Cl)c4)c23)CC1 [Example 58, (1R,2S)-1-[4-({3-chloro-4-[(3-fluorobenzyl)oxy]phenyl}amino)[1]benzothieno[2,3-d]pyrimidin-7-yl]-3-(4-ethylpiperazin-1-yl)-3-oxopropane-1,2-diol]
- IC50 [1]: ≤ 50 µM
- IC50 [2]: ≤ 5 µM

Compound: CN(C)[C@H]1CCN(C(=O)C(O)C(O)c2ccc3c(c2)sc2ncnc(Nc4ccc(OCc5cccc(F)c5)c(Cl)c4)c23)C1 (stereo partly drawn) [Example 59, 1-[4-({3-chloro-4-[(3-fluorobenzyl)oxy]phenyl}amino) [1]benzothieno[2,3-d]pyrimidin-7-yl]-3-[(3S)-3-(dimethylamino)pyrrolidin-1-yl]-3-oxopropane-1,2-diol]
- IC50 [1]: ≤ 50 µM
- IC50 [2]: ≤ 5 µM

Compound: CS(=O)(=O)CCNC(=O)C(O)C(O)c1ccc2c(c1)sc1ncnc(Nc3ccc(OCc4cccc(F)c4)c(Cl)c3)c12 (centres unmarked) [Example 60, 3-[4-({3-chloro-4-[(3-fluorobenzyl)oxy]phenyl}amino) [1]benzothieno[2,3-d]pyrimidin-7-yl]-2,3-dihydroxy-N-[2-(methylsulfonyl)ethyl]propanamide]
- IC50 [1]: ≤ 50 µM
- IC50 [2]: ≤ 0.5 µM

Compound: OC/C=C/c1ccc2c(c1)sc1ncnc(Nc3ccc(OCc4cccc(F)c4)c(Cl)c3)c12 [Example 61, (2E)-3-[4-({3-chloro-4-[(3-fluorobenzyl)oxy]phenyl}amino)[1]benzothieno[2,3-d]pyrimidin-7-yl]prop-2-en-1-ol]
- IC50 [1]: ≤ 50 µM
- IC50 [2]: ≤ 0.5 µM

Compound: OCC(O)C(O)c1ccc2c(c1)sc1ncnc(Nc3ccc(OCc4cccc(F)c4)c(Cl)c3)c12 (centres unmarked) [Example 62, 1-[4-({3-chloro-4-[(3-fluorobenzyl)oxy]phenyl}amino)[1]benzothieno[2,3-d]pyrimidin-7-yl]propane-1,2,3-triol]
- IC50 [1]: ≤ 5 µM
- IC50 [2]: ≤ 0.5 µM

Compound: OC[C@H](O)[C@@H](O)c1ccc2c(c1)sc1ncnc(Nc3ccc(OCc4cccc(F)c4)c(Cl)c3)c12 [Example 63, (1S,2S)-1-[4-({3-chloro-4-[(3-fluorobenzyl)oxy]phenyl}amino) [1]benzothieno[2,3-d]pyrimidin-7-yl]propane-1,2,3-triol]
- IC50 [1]: ≤ 5 µM
- IC50 [2]: ≤ 0.5 µM

Compound: OC[C@@H](O)[C@H](O)c1ccc2c(c1)sc1ncnc(Nc3ccc(OCc4cccc(F)c4)c(Cl)c3)c12 [Example 64, (1R,2R)-1-[4-({3-chloro-4-[(3-fluorobenzyl)oxy]phenyl}amino)[1]benzothieno[2,3-d]pyrimidin-7-yl]propane-1,2,3-triol]
- IC50 [1]: ≤ 5 µM
- IC50 [2]: ≤ 0.5 µM

Compound: O=C(O)CCc1ccc2c(c1)sc1ncnc(Nc3ccc(OCc4cccc(F)c4)c(Cl)c3)c12 [Example 65, 3-[4-({3-chloro-4-[(3-fluorobenzyl)oxy]phenyl}amino)[1]benzothieno[2,3-d]pyrimidin-7-yl]propanoic acid]
- IC50 [1]: ≤ 50 µM
- IC50 [2]: ≤ 5 µM

Compound: CN1CCN(C(=O)CCc2ccc3c(c2)sc2ncnc(Nc4ccc(OCc5cccc(F)c5)c(Cl)c4)c23)CC1 [Example 66, N-{3-chloro-4-[(3-fluorobenzyl)oxy]phenyl}-7-[3-(4-methylpiperazin-1-yl)-3-oxopropyl][1]benzothieno[2,3-d]pyrimidin-4-amine]
- IC50 [1]: ≤ 50 µM
- IC50 [2]: ≤ 5 µM

Compound: CCN1CCN(C(=O)CCc2ccc3c(c2)sc2ncnc(Nc4ccc(OCc5cccc(F)c5)c(Cl)c4)c23)CC1 [Example 67, N-{3-chloro-4-[(3-fluorobenzyl)oxy]phenyl}-7-[3-(4-ethylpiperazin-1-yl)-3-oxopropyl][1]benzothieno[2,3-d] pyrimidin-4-amine]
- IC50 [1]: ≤ 50 µM
- IC50 [2]: ≤ 5 µM

Compound: CN(C)[C@H]1CCN(C(=O)CCc2ccc3c(c2)sc2ncnc(Nc4ccc(OCc5cccc(F)c5)c(Cl)c4)c23)C1 [Example 68, N-{3-chloro-4-[(3-fluorobenzyl)oxy]phenyl}-7-{3-[(3S)-3-(dimethylamino)pyrrolidin-1-yl]-3-oxopropyl} [1]benzothieno[2,3-d]pyrimidin-4-amine]
- IC50 [1]: ≤ 5 µM
- IC50 [2]: ≤ 5 µM
